For 32 compounds, IC50 results are on record in BindingDB's records for doi:10.1021/jm701348d (Inspire Pharmaceuticals, 2008).

The structures appear in SMILES notation. Several values for one entry are separate records, joined by “and”; a condition that tells them apart may be missing. Equal values may be shown once.

In general, IC50 refers to the concentration that gives 50% inhibition.

The assay is described as follows: Antagonist activity at P2Y12 receptor assessed as inhibition of ADP-induced human platelet aggregation by washed platelet assay.
Turning to `Nc1ncnc2c1ncn2[C@@H]1O[C@H](COP(=O)(O)O)[C@H]2OC(C#Cc3ccccc3)O[C@H]21` (some centres not stated), the half-maximal inhibitory concentration (IC50) amounted to 57.1 µM.
As for `Nc1ncnc2c1ncn2[C@@H]1O[C@H](COP(=O)(O)OP(=O)(O)O)[C@H]2O[C@@H](Cc3ccccc3)O[C@H]21`, the figure is 23 µM.
The figure for `O=c1ccn([C@@H]2O[C@H](COP(=O)(O)OP(=O)(O)OP(=O)(O)OC[C@@H]3O[C@H](n4ccc(=O)[nH]c4=O)[C@@H](O)[C@H]3O)[C@H]3OC(Cc4ccccc4)O[C@H]32)c(=O)[nH]1` (some centres not stated) is 34.7 µM; for `O=c1ccn([C@@H]2O[C@H](COP(=O)(O)OP(=O)(O)OP(=O)(O)OP(=O)(O)OC[C@@H]3O[C@H](n4ccc(=O)[nH]c4=O)[C@@H](O)[C@H]3O)[C@@H]3OC(c4ccccc4)O[C@H]32)c(=O)[nH]1` (some centres not stated) it is 16.7 µM; for `O=c1ccn([C@@H]2O[C@H](COP(=O)(O)OP(=O)(O)OP(=O)(O)OP(=O)(O)OC[C@@H]3O[C@H](n4ccc(=O)[nH]c4=O)[C@@H](O)[C@H]3O)[C@@H]3OC(Cc4ccccc4)O[C@H]32)c(=O)[nH]1` (some centres not stated) it is 27.1 µM.
As to `O=C(Nc1ccc(F)cc1)Nc1ccn([C@@H]2O[C@H](COP(=O)(O)OP(=O)(O)OP(=O)(O)OP(=O)(O)OC[C@@H]3O[C@H](n4ccc(=O)[nH]c4=O)[C@@H](O)[C@H]3O)[C@H]3O[C@@H](Cc4ccccc4)O[C@H]32)c(=O)n1`, the IC50 came to 12.9 µM.
For the compound `Nc1ncnc2c1ncn2[C@@H]1O[C@H](COP(=O)(O)O)[C@H]2OC(/C=C/c3ccccc3)O[C@H]21` (some centres not stated), the concentration for half-maximal inhibition (IC50) came out at 45.1 µM.
As for `O=c1ccn([C@@H]2O[C@H](COP(=O)(O)OP(=O)(O)OP(=O)(O)OP(=O)(O)OC[C@@H]3O[C@H](n4ccc(=O)[nH]c4=O)[C@H]4OC(/C=C/c5ccccc5)O[C@H]43)[C@H]3OC(/C=C/c4ccccc4)O[C@H]32)c(=O)[nH]1` (some centres not stated), the figure is 3.3 µM.
With `CCCCCCCC1O[C@@H]2[C@H](O1)[C@@H](COP(=O)(O)OP(=O)(O)OP(=O)(O)OP(=O)(O)OC[C@@H]1O[C@H](n3ccc(=O)[nH]c3=O)[C@H]3OC(CCCCCCC)O[C@H]31)O[C@H]2n1ccc(=O)[nH]c1=O` (some centres not stated), the IC50 worked out at 10.7 µM.
Take `O=C(Nc1ccc(F)cc1)Nc1ccn([C@@H]2O[C@H](COP(=O)(O)O)[C@H]3O[C@@H](Cc4ccccc4)O[C@H]32)c(=O)n1`: the IC50 amounted to 11.2 µM.
Turning to `CCNC(=O)Nc1ncnc2c1ncn2[C@@H]1O[C@H](COP(=O)(O)O)[C@H]2OC(Cc3ccccc3)O[C@H]21` (some centres not stated), the IC50 stood at 0.041 µM.
Consider `O=C(Nc1ccccc1)Nc1ncnc2c1ncn2[C@@H]1O[C@H](COP(=O)(O)OP(=O)(O)O)[C@@H](O)[C@H]1O`, for which the IC50 came to 10.8 µM.
On to `O=c1ccn([C@@H]2O[C@H](COP(=O)(O)OP(=O)(O)OP(=O)(O)OP(=O)(O)OC[C@@H]3O[C@H](n4ccc(=O)[nH]c4=O)[C@@H](O)[C@H]3O)[C@H]3OC(/C=C/c4ccccc4)O[C@H]32)c(=O)[nH]1` (some centres not stated), for which the IC50 was 8.68 µM and 8.8 µM.
The figure for `O=C(Nc1ncnc2c1ncn2[C@@H]1O[C@H](COP(=O)(O)O)[C@H]2OC(Cc3ccccc3)O[C@H]21)NC1CCCC1` (some centres not stated) is 0.0362 µM; for `O=c1ccn([C@@H]2O[C@H](COP(=O)(O)OP(=O)(O)OP(=O)(O)OP(=O)(O)OC[C@@H]3O[C@H](n4ccc(=O)[nH]c4=O)[C@H]4OC(Cc5ccccc5)O[C@H]43)[C@H]3OC(Cc4ccccc4)O[C@H]32)c(=O)[nH]1` (some centres not stated) it is 1.82 µM; for `O=C(Nc1ccccc1)Nc1ncnc2c1ncn2[C@@H]1O[C@H](COP(=O)(O)OP(=O)(O)OP(=O)(O)OP(=O)(O)OC[C@@H]2O[C@H](n3cnc4c(NC(=O)Nc5ccccc5)ncnc43)[C@H]3O[C@@H](Cc4ccccc4)O[C@H]32)[C@H]2O[C@@H](Cc3ccccc3)O[C@H]21` it is 0.522 µM.
Regarding `CCCCCCNC(=O)Nc1ncnc2c1ncn2[C@@H]1O[C@H](COP(=O)(O)O)[C@H]2OC(/C=C/c3ccccc3)O[C@H]21` (some centres not stated), the 50% inhibitory concentration (IC50) was determined as 0.237 µM.
As for `CCNC(=O)Nc1ncnc2c1ncn2[C@@H]1O[C@H](COP(=O)(O)O)[C@H]2OC(c3ccccc3)O[C@H]21` (some centres not stated), the figure is 0.013 µM.
The figure for `CNc1ccccc1C(=O)O[C@H]1[C@@H](O)[C@H](n2ccc(=O)[nH]c2=O)O[C@@H]1COP(=O)(O)OP(=O)(O)OP(=O)(O)OP(=O)(O)OC[C@@H]1O[C@H](n2ccc(=O)[nH]c2=O)[C@@H](OC(=O)c2ccccc2NC)[C@H]1O` is 7.59 µM.
Turning to `CCCCCCNC(=O)Nc1ncnc2c1ncn2[C@@H]1O[C@H](COP(=O)(O)O)[C@H]2OC(C#Cc3ccccc3)O[C@H]21` (some centres not stated), the IC50 was 0.211 µM.
For `O=C(Nc1ccccc1)Nc1ncnc2c1ncn2[C@@H]1O[C@H](COP(=O)(O)OP(=O)(O)O)[C@H]2O[C@@H](Cc3ccccc3)O[C@H]21`, the IC50 was found to be 0.052 µM.
The figure for `O=C(Nc1ccccc1)Nc1ncnc2c1ncn2[C@@H]1O[C@H](COP(=O)(O)O)[C@H]2OC(C#Cc3ccccc3)O[C@H]21` (some centres not stated) is 0.288 µM.
For the compound `O=c1ccn([C@@H]2O[C@H](COP(=O)(O)OP(=O)(O)OP(=O)(O)OC[C@@H]3O[C@H](n4ccc(=O)[nH]c4=O)[C@H]4OC(Cc5ccccc5)O[C@H]43)[C@H]3OC(Cc4ccccc4)O[C@H]32)c(=O)[nH]1` (some centres not stated), the IC50 was found to be 4.63 µM.
The figure for `O=C(Nc1ccc(F)cc1)Nc1ccn([C@@H]2O[C@H](COP(=O)(O)OP(=O)(O)OP(=O)(O)OP(=O)(O)OC[C@@H]3O[C@H](n4ccc(=O)[nH]c4=O)[C@H]4O[C@@H](Cc5ccccc5)O[C@H]43)[C@@H](O)[C@H]2O)c(=O)n1` is 23.9 µM; for `CCCCCCCC1O[C@@H]2[C@H](O1)[C@@H](COP(=O)(O)OP(=O)(O)OP(=O)(O)OP(=O)(O)OC[C@@H]1O[C@H](n3ccc(=O)[nH]c3=O)[C@@H](O)[C@H]1O)O[C@H]2n1ccc(=O)[nH]c1=O` (some centres not stated) it is 16.9 µM; for `O=C(Nc1ccccc1)Nc1ncnc2c1ncn2[C@@H]1O[C@H](COP(=O)(O)O)[C@H]2OC(Cc3ccccc3)O[C@H]21` (some centres not stated) it is 0.16 µM.
In the case of `O=C(Nc1ccccc1)Nc1ncnc2c1ncn2[C@@H]1O[C@H](COP(=O)(O)O)[C@H]2OC(/C=C/c3ccccc3)O[C@H]21` (some centres not stated), the IC50 was determined as 0.21 µM.
The figure for `Nc1ncnc2c1ncn2[C@@H]1O[C@H](COP(=O)(O)OP(=O)(O)OP(=O)(O)OP(=O)(O)OC[C@@H]2O[C@H](n3cnc4c(N)ncnc43)[C@H]3OC(Cc4ccccc4)O[C@H]32)[C@H]2OC(Cc3ccccc3)O[C@H]21` (some centres not stated) is 11.7 µM; for `O=c1ccn([C@@H]2O[C@H](COP(=O)(O)OP(=O)(O)OP(=O)(O)OP(=O)(O)OC[C@@H]3O[C@H](n4ccc(=O)[nH]c4=O)[C@H]4OC(c5ccccc5)O[C@H]43)[C@H]3OC(c4ccccc4)O[C@H]32)c(=O)[nH]1` (some centres not stated) it is 8.29 µM.
Take `O=C(Nc1ccccc1)Nc1ncnc2c1ncn2[C@@H]1O[C@H](COP(=O)(O)O)[C@@H](O)[C@H]1O`: the half-maximal inhibitory concentration (IC50) was found to be 3.11 µM.
For `Nc1ncnc2c1ncn2[C@@H]1O[C@H](COP(=O)(O)OP(=O)(O)OP(=O)(O)OP(=O)(O)OC[C@@H]2O[C@H](n3cnc4c(N)ncnc43)[C@@H](O)[C@H]2O)[C@H]2OC(Cc3ccccc3)O[C@H]21` (some centres not stated), the IC50 stood at 6.54 µM.
Regarding `CCCCCCNC(=O)Nc1ncnc2c1ncn2[C@@H]1O[C@H](COP(=O)(O)O)[C@H]2OC(Cc3ccccc3)O[C@H]21` (some centres not stated), the IC50 amounted to 0.053 µM.
